Where “and” joins values, the source holds several entries; their conditions need not be identical. Equal entries are not always repeated. After the bases stand the sugars from the 5' end (letter, count) and the backbone: PS all phosphorothioate, else s phosphorothioate and o phosphodiester by linkage. Methylation of C is not given here. e = 2'-O-(2-methoxyethyl) (MOE); k = constrained ethyl (cEt); d = 2'-deoxy (DNA)

The data set concerns the target IRF4. The following applies: ASO.

With CTGGATATGTGGTGTT (sugars k3 d10 k3, PS), the target mRNA inhibition (MM.1R, 1 µM) was found to be 30%.

On to TCGCAGGAGCGCGGAG (sugars k3 d10 k3, PS), for which the target mRNA inhibition (SK-MEL-28, 4 µM) is -37%. For the sequence GCCAAGGAGGCGGGCC (sugars k3 d10 k3, PS), under “MM.1R, 1 µM”, the target mRNA inhibition was -2%. GTCTAGACAGAGAGTC (sugars k3 d10 k3, PS): the target mRNA inhibition (SK-MEL-28, 4 µM) is 2%.

Turning to GCAAAAGAAACGAGTT (sugars k3 d10 k3, PS), the target mRNA inhibition (SK-MEL-28, 4 µM) was 8%. For the sequence GGCGGAGCTTCCCGTT (sugars k3 d10 k3, PS), for the setting “SK-MEL-28, 4 µM”, the target mRNA inhibition came out at 26%. Take GGAATTTCCATTGGAG (sugars k3 d10 k3, PS): the target mRNA inhibition (SK-MEL-28, 4 µM) stood at 44%.

Take CCTGATGCCTCCGCCG (sugars k3 d10 k3, PS): for the setting “MM.1R, 1 µM”, the target mRNA inhibition amounted to 6%. Turning to ACCTAATCTACAACAA (sugars k3 d10 k3, PS), for the setting “SK-MEL-28, 4 µM”, the target mRNA inhibition worked out at 17%. Turning to ACAAGCAGTGATGTCA (sugars k3 d10 k3, PS), the target mRNA inhibition is, setting by setting: (MM.1R, 0.0625 µM) -4%; (MM.1R, 0.074 µM) 2%; (MM.1R, 0.222 µM) 6%; (MM.1R, 0.25 µM) 5%; (MM.1R, 0.666 µM) 14%; (MM.1R, 1 µM) 14%. Also, the target mRNA inhibition is, setting by setting: (MM.1R, 2 µM) 46%; (MM.1R, 4 µM) 52%; (SK-MEL-28, 4 µM) 73%. With TGTGTCAAAGAGCTTG (sugars k4 d8 k4, PS), for the setting “SK-MEL-28, 4 µM”, the target mRNA inhibition is 26%. Regarding “CAGTGACTTGCATCCA (sugars kkdddddddddekeke, PS)”, the target mRNA inhibition (MM.1R, 1 µM) worked out at 34%.

CTGCGAAGCGCGCGCG (sugars k3 d10 k3, PS): the target mRNA inhibition (MM.1R, 1 µM) is -6%. On to TGTTACTTTCAAATCG (sugars k3 d10 k3, PS), for which, where the note is “SK-MEL-28, 4 µM”, the target mRNA inhibition turned out to be 48%. Take GATCATAAAGGACAAT (sugars k3 d10 k3, PS): the target mRNA inhibition (SK-MEL-28, 4 µM) was found to be 30%. The same measure, in the same setting: in the case of GCTCCACAGCAAGGCC (sugars k3 d10 k3, PS) it was 58%.

In the case of GTGTGATTAATTCTCC (sugars k3 d10 k3, PS), the target mRNA inhibition reads like this: (MM.1R, 0.0625 µM) -15%; (MM.1R, 0.25 µM) 8%; (MM.1R, 1 µM) 64% and 44%; (MM.1R, 4 µM) 87%. For TAGTCGCGCAAGTCTA (sugars k3 d10 k3, PS), where the note is “SK-MEL-28, 4 µM”, the target mRNA inhibition was -8%. Turning to “GAAGCATTTTATCATC (sugars kkdddddddddekeke, PS)”, the target mRNA inhibition (MM.1R, 1 µM) was 6%. As for GATTTCTAGGTAATCT (sugars k3 d10 k3, PS), the target mRNA inhibition (SK-MEL-28, 4 µM) came to 31%. For the sequence CCAAATGTGGAGCTCC (sugars k3 d10 k3, PS), the target mRNA inhibition (SK-MEL-28, 4 µM) was determined as 23%.

For “ACCTCAGTTTGTGAAG (sugars kkddddddddddkeke, PS)”, the target mRNA inhibition (MM.1R, 1 µM) is -12%. With TTATAACCGGTAGAGT (sugars k3 d10 k3, PS), the target mRNA inhibition (SK-MEL-28, 4 µM) turned out to be 38%. With AGCCATAGCAAATGGC (sugars k3 d10 k3, PS), the target mRNA inhibition (SK-MEL-28, 4 µM) came to 5%. For the sequence TCTTTGAAGTGCTGTG (sugars k3 d10 k3, PS), the target mRNA inhibition (SK-MEL-28, 4 µM) was determined as 57%. On to ATGGCAGTGGAGCTCC (sugars k3 d10 k3, PS), for which, for the setting “SK-MEL-28, 4 µM”, the target mRNA inhibition was determined as 56%.

For GCTAAAGGAGTGCAGG (sugars k3 d10 k3, PS), the target mRNA inhibition (SK-MEL-28, 4 µM) was determined as 7%.

Consider “GCATTTTATCATCCGA (sugars kkkdddddddddkeke, PS)”, for which the target mRNA inhibition (MM.1R, 1 µM) worked out at 32%. With TGTTAAGTCCCATCTG (sugars k3 d10 k3, PS), the target mRNA inhibition (SK-MEL-28, 4 µM) was found to be 25%. “GTGATAGCTGAGCTGA (sugars kkdddddddddkekek, PS)”: the target mRNA inhibition (MM.1R, 1 µM) was determined as 39%.

Turning to TGTAACTGAGGACTCA (sugars k3 d10 k3, PS), the target mRNA inhibition (SK-MEL-28, 4 µM) is -2%. Take TAGCAGAGGTTCTACC (sugars k3 d10 k3, PS): the target mRNA inhibition (SK-MEL-28, 4 µM) was found to be 26%. For GTAAACTGCCTTAGGG (sugars k3 d10 k3, PS), the target mRNA inhibition (SK-MEL-28, 4 µM) is 44%. Regarding AATGAGGAAGCCGTTC (sugars k3 d10 k3, PS), for the setting “SK-MEL-28, 4 µM”, the target mRNA inhibition stood at 47%.

Regarding “TGTTACCGATGCTTCA (sugars kkdddddddddekeke, PS)”, where the note is “MM.1R, 1 µM”, the target mRNA inhibition is 35% and 49%. In the case of “ACACTTTTAGAGAGGA (sugars kddddddddddkekek, PS)”, the target mRNA inhibition (MM.1R, 1 µM) is -6%.

For the sequence AGTGGAGGTCTTTGGG (sugars k3 d10 k3, PS), the target mRNA inhibition (SK-MEL-28, 4 µM) stood at 55%. As to TATAACTTCTCCTGTG (sugars k3 d10 k3, PS), where the note is “MM.1R, 1 µM”, the target mRNA inhibition turned out to be 7%. Turning to TTCCGTAGTCAGCTCC (sugars k3 d10 k3, PS), the target mRNA inhibition (SK-MEL-28, 4 µM) turned out to be 68%. For the sequence AATGCATAACACGGTG (sugars k3 d10 k3, PS), the target mRNA inhibition (SK-MEL-28, 4 µM) stood at 49%.

On to ACAGAGCCAACTTATA (sugars k3 d10 k3, PS), for which, under “SK-MEL-28, 4 µM”, the target mRNA inhibition was found to be 6%. Turning to GTTGGAGCAGCCATAG (sugars k3 d10 k3, PS), the target mRNA inhibition (SK-MEL-28, 4 µM) came out at 31%. For the sequence “ACTGCTTGAGGTTTTC (sugars kkkddddddddkekek, PS)”, the target mRNA inhibition (MM.1R, 1 µM) worked out at 32%. On to TCACTATTAAACAGCA (sugars k3 d10 k3, PS), for which the target mRNA inhibition (SK-MEL-28, 4 µM) is 16%. The same measure, in the same setting: as for CTGTATAGTTCTCAAC (sugars k3 d10 k3, PS), the figure is 52%; as for GCCGAACTCTCCGCCT (sugars k3 d10 k3, PS), 51%; as for GCTTACAAAAACTTGG (sugars k3 d10 k3, PS), 26%. For “AGGCACATCAATGTTT (sugars kkdddddddddkekek, PS)”, the target mRNA inhibition (MM.1R, 1 µM) was 16% and 19%.

CAAAGAGGGTCACAGG (sugars k3 d10 k3, PS): for the setting “SK-MEL-28, 4 µM”, the target mRNA inhibition was found to be 63%.

TGACAAGAACTGCTGT (sugars k3 d10 k3, PS): the target mRNA inhibition (SK-MEL-28, 4 µM) was 18%. As for TCAAAAGGTAGTAGAC (sugars k3 d10 k3, PS), the target mRNA inhibition (SK-MEL-28, 4 µM) turned out to be 29%. On to AGCCCTTGCTGCAAAT (sugars k3 d10 k3, PS), for which the target mRNA inhibition (MM.1R, 1 µM) was -11%. For the sequence “GAAGTTTACACTGGAT (sugars k3 d9 k3 e1, PS)”, the target mRNA inhibition (MM.1R, 1 µM) worked out at 45%. With TAAATGAGTCGGTCAC (sugars k3 d10 k3, PS), the target mRNA inhibition (SK-MEL-28, 4 µM) was 76% and 65%.

As to CGCCACATCAGCAGAC (sugars k3 d10 k3, PS), the target mRNA inhibition (SK-MEL-28, 4 µM) was determined as 12%. Turning to ACTTATTTGTGGCTCA (sugars k3 d10 k3, PS), the target mRNA inhibition (MM.1R, 1 µM) was 36%.

Take CACTCATCTTGACATT (sugars k3 d10 k3, PS): the target mRNA inhibition (SK-MEL-28, 4 µM) was determined as 36%.

Regarding “CTTGATAAAGGCTGAA (sugars kkkdddddddddkeke, PS)”, the target mRNA inhibition (MM.1R, 1 µM) came to 24%. For the sequence ATTCCAACAGGCGGAC (sugars k3 d10 k3, PS), the target mRNA inhibition (MM.1R, 1 µM) came to 2%.

Consider CTGCATTTGCAAATAA (sugars k3 d10 k3, PS), for which the target mRNA inhibition (SK-MEL-28, 4 µM) was -21%. With GAATAGGAAGATATCA (sugars k3 d10 k3, PS), the target mRNA inhibition (SK-MEL-28, 4 µM) came out at 6%. As to “TTTATGTTAGCCAATT (sugars kkdddddddddkekek, PS)”, the target mRNA inhibition (MM.1R, 1 µM) is 9% and 15%.

On to TTACACCCAGAAGTAC (sugars k3 d10 k3, PS), for which, where the note is “SK-MEL-28, 4 µM”, the target mRNA inhibition worked out at 5%. For GACAGTGACTTGCATC (sugars k3 d10 k3, PS), the target mRNA inhibition (MM.1R, 1 µM) amounted to 24%. TAATGTAGGGATACAG (sugars k3 d10 k3, PS): the target mRNA inhibition (SK-MEL-28, 4 µM) was 78%. For “GACAGTGACTTGCATC (sugars kkdddddddddekeke, PS)”, under “MM.1R, 1 µM”, the target mRNA inhibition was 30%. Turning to GCTTACTGTGATTCTG (sugars k3 d10 k3, PS), the target mRNA inhibition (SK-MEL-28, 4 µM) stood at 34%. “ACGGAAGTTTACACTG (sugars kkddddddddddkeke, PS)”: the target mRNA inhibition (MM.1R, 1 µM) was determined as 13%. Consider “TGCTTGAGGTTTTCCT (sugars kddddddddddkekek, PS)”, for which the target mRNA inhibition (MM.1R, 1 µM) worked out at 36%. Regarding TTTACAGCATCTAAGG (sugars k3 d10 k3, PS), the target mRNA inhibition (SK-MEL-28, 4 µM) is 34%.

For the sequence AATTAAAGAGCGCATT (sugars k3 d10 k3, PS), for the setting “SK-MEL-28, 4 µM”, the target mRNA inhibition is 17%. Consider TTTGCTTTGGGCACCA (sugars k3 d10 k3, PS), for which the target mRNA inhibition (MM.1R, 1 µM) turned out to be 24%. Consider TAACAGGCTATCAGGA (sugars k3 d10 k3, PS), for which the target mRNA inhibition (SK-MEL-28, 4 µM) stood at 26%.

GACAAGTGCTAGGATT (sugars k3 d10 k3, PS): for the setting “SK-MEL-28, 4 µM”, the target mRNA inhibition amounted to 61%. TGCCTAGGACTAAGGA (sugars k3 d10 k3, PS): the target mRNA inhibition (SK-MEL-28, 4 µM) stood at 26%.

For CGTGGAAACGAGAACG (sugars k3 d10 k3, PS), for the setting “SK-MEL-28, 4 µM”, the target mRNA inhibition came out at 29%. Take CAATATGCTTCCAACC (sugars k3 d10 k3, PS): where the note is “SK-MEL-28, 4 µM”, the target mRNA inhibition is -15%. On to TATGGCTAAACCTGGC (sugars k3 d10 k3, PS), for which the target mRNA inhibition (SK-MEL-28, 4 µM) is 43%. Consider CAATTAGCTCTTCTAT (sugars k3 d10 k3, PS), for which the target mRNA inhibition (SK-MEL-28, 4 µM) was determined as 14%. Take ATTTAAGTCATGTGTC (sugars k3 d10 k3, PS): the target mRNA inhibition (MM.1R, 1 µM) turned out to be 17%. Turning to AAAGACAAGTGCCCAT (sugars k3 d10 k3, PS), under “SK-MEL-28, 4 µM”, the target mRNA inhibition is 24%. The same measure, in the same setting: as for CCTCACTACAGAGCCC (sugars k3 d10 k3, PS), the figure is 24%. As to AGCACTGGCATCGAGA (sugars k3 d10 k3, PS), the target mRNA inhibition (SK-MEL-28, 4 µM) worked out at 59%.

For the sequence “TAGTATGAGAAACGGC (sugars kkkdddddddddkeke, PS)”, the target mRNA inhibition (MM.1R, 0.074 µM) is 8%; the target mRNA inhibition (MM.1R, 0.222 µM) was determined as 29%; the target mRNA inhibition (MM.1R, 0.666 µM) came to 50%; the target mRNA inhibition (MM.1R, 1 µM) came out at 62%; the target mRNA inhibition (MM.1R, 2 µM) stood at 71%. For the sequence CGGTTAGCTCATCCCG (sugars k3 d10 k3, PS), for the setting “MM.1R, 1 µM”, the target mRNA inhibition worked out at 5%.

As for GAGGTTTTCCTAAATA (sugars k3 d10 k3, PS), the target mRNA inhibition by setting is: (SK-MEL-28, 0.185 µM) 20%; (SK-MEL-28, 4 µM) 69%; (SK-MEL-28, 5 µM) 75%; (SK-MEL-28, 15 µM) 89%. Regarding TTCTAATGGTGCTCCT (sugars k3 d10 k3, PS), the target mRNA inhibition (SK-MEL-28, 4 µM) was found to be 7%.

The record behind these values is the OligoGym collection.
